According to PubChem BioAssay (NCI):
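Five compound concentrations were applied to cells in 96-well plates for 48 hours; endpoints were derived by simple linear interpolation of the resulting dose-response curve. At the TGI there is no net growth.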

Tests used:
Experiment in all cases: NCI-60 cell line screen, 48 h
[1] = test system: 786-0 renal
[2] = test system: A498 renal
[3] = test system: A549 NSCLC
[4] = test system: ACHN renal
[5] = test system: BT-549 breast
[6] = test system: CAKI-1 renal
[7] = test system: CCRF-CEM leukemia
[8] = test system: COLO 205 colon
[9] = test system: DU-145 prostate
[10] = test system: EKVX NSCLC
[11] = test system: HCC-2998 colon
[12] = test system: HCT-116 colon
[13] = test system: HCT-15 colon
[14] = test system: HL-60(TB) leukemia
[15] = test system: HOP-62 NSCLC
[16] = test system: HOP-92 NSCLC
[17] = test system: HS 578T breast
[18] = test system: HT29 colon
[19] = test system: IGROV1 ovarian
[20] = test system: K-562 leukemia
[21] = test system: KM12 colon
[22] = test system: LOX IMVI melanoma
[23] = test system: M14 melanoma
[24] = test system: MCF7 breast
[25] = test system: MDA-MB-231 breast
[26] = test system: MDA-MB-435
[27] = test system: MDA-N
[28] = test system: MOLT-4 leukemia
[29] = test system: NCI-H226 lung
[30] = test system: NCI-H23 lung
[31] = test system: NCI-H460 lung
[32] = test system: NCI-H522 lung
[33] = test system: NCI/ADR-RES ovarian
[34] = test system: OVCAR-3 ovarian
[35] = test system: OVCAR-4 ovarian
[36] = test system: OVCAR-5 ovarian
[37] = test system: OVCAR-8 ovarian
[38] = test system: PC-3 prostate
[39] = test system: RPMI-8226 leukemia
[40] = test system: RXF 393 renal
[41] = test system: SF-268 CNS
[42] = test system: SF-295 CNS
[43] = test system: SF-539 CNS
[44] = test system: SK-MEL-2 melanoma
[45] = test system: SK-MEL-28 melanoma
[46] = test system: SK-MEL-5 melanoma
[47] = test system: SK-OV-3 ovarian
[48] = test system: SN12C renal
[49] = test system: SNB-75 CNS
[50] = test system: SR leukemia
[51] = test system: SW-620 colon
[52] = test system: T-47D breast
[53] = test system: TK-10 renal
[54] = test system: U251 CNS
[55] = test system: UACC-257 melanoma
[56] = test system: UACC-62 melanoma
[57] = test system: UO-31 renal
[58] = test system: MALME-3M melanoma
[59] = test system: SNB-19 CNS

## COc1ccc(CCNC(=O)Cc2ccccc2CO)cc1OC
[1]
  TGI: > 100 µM
[2]
  TGI: > 100 µM
[3]
  TGI: > 100 µM
[4]
  TGI: > 100 µM
[5]
  TGI: > 100 µM
[6]
  TGI: > 100 µM
[7]
  TGI: > 100 µM
[8]
  TGI: > 100 µM
[9]
  TGI: > 100 µM
[10]
  TGI: > 100 µM
[11]
  TGI: > 100 µM
[12]
  TGI: > 100 µM
[13]
  TGI: > 100 µM
[14]
  TGI: > 100 µM
[15]
  TGI: > 100 µM
[16]
  TGI: > 100 µM
[17]
  TGI: > 100 µM
[18]
  TGI: > 100 µM
[19]
  TGI: > 100 µM
[20]
  TGI: > 100 µM
[21]
  TGI: > 100 µM
[22]
  TGI: > 100 µM
[23]
  TGI: > 100 µM
[24]
  TGI: > 100 µM
[25]
  TGI: > 100 µM
[26]
  TGI: > 100 µM
[27]
  TGI: > 100 µM
[28]
  TGI: > 100 µM
[29]
  TGI: > 100 µM
[30]
  TGI: > 100 µM
[31]
  TGI: > 100 µM
[32]
  TGI: > 100 µM
[33]
  TGI: > 100 µM
[34]
  TGI: > 100 µM
[35]
  TGI: > 100 µM
[36]
  TGI: > 100 µM
[37]
  TGI: > 100 µM
[38]
  TGI: > 100 µM
[39]
  TGI: > 100 µM
[40]
  TGI: > 100 µM
[41]
  TGI: > 100 µM
[42]
  TGI: > 100 µM
[43]
  TGI: > 100 µM
[44]
  TGI: > 100 µM
[45]
  TGI: > 100 µM
[46]
  TGI: > 100 µM
[47]
  TGI: > 100 µM
[48]
  TGI: > 100 µM
[49]
  TGI: > 100 µM
[50]
  TGI: > 100 µM
[51]
  TGI: > 100 µM
[52]
  TGI: > 100 µM
[53]
  TGI: > 100 µM
[54]
  TGI: > 100 µM
[55]
  TGI: > 100 µM
[56]
  TGI: > 100 µM
[57]
  TGI: > 100 µM

## CCOC(=O)c1cc(-c2ccc(OC)cc2)c([N+](=O)[O-])[nH]1
[1]
  TGI: > 10 µM
[2]
  TGI: > 10 µM
[3]
  TGI: > 10 µM
[4]
  TGI: > 10 µM
[5]
  TGI: > 10 µM
[6]
  TGI: > 10 µM
[7]
  TGI: > 10 µM
[8]
  TGI: > 10 µM
[9]
  TGI: > 10 µM
[10]
  TGI: > 10 µM
[11]
  TGI: > 10 µM
[12]
  TGI: > 10 µM
[13]
  TGI: > 10 µM
[14]
  TGI: > 10 µM
[15]
  TGI: > 10 µM
[16]
  TGI: > 10 µM
[17]
  TGI: > 10 µM
[18]
  TGI: > 10 µM
[19]
  TGI: > 10 µM
[20]
  TGI: > 10 µM
[21]
  TGI: > 10 µM
[23]
  TGI: > 10 µM
[58]
  TGI: > 10 µM
[24]
  TGI: > 10 µM
[25]
  TGI: > 10 µM
[26]
  TGI: > 10 µM
[27]
  TGI: > 3.16 µM
[28]
  TGI: > 10 µM
[29]
  TGI: > 10 µM
[30]
  TGI: > 10 µM
[31]
  TGI: > 10 µM
[32]
  TGI: > 10 µM
[34]
  TGI: > 10 µM
[35]
  TGI: > 10 µM
[36]
  TGI: > 10 µM
[37]
  TGI: > 10 µM
[38]
  TGI: > 10 µM
[40]
  TGI: > 10 µM
[41]
  TGI: > 10 µM
[42]
  TGI: > 10 µM
[43]
  TGI: > 10 µM
[44]
  TGI: > 10 µM
[45]
  TGI: > 10 µM
[46]
  TGI: > 10 µM
[47]
  TGI: > 10 µM
[48]
  TGI: > 10 µM
[59]
  TGI: > 10 µM
[49]
  TGI: > 10 µM
[50]
  TGI: > 10 µM
[51]
  TGI: > 10 µM
[52]
  TGI: > 10 µM
[53]
  TGI: > 10 µM
[54]
  TGI: > 10 µM
[55]
  TGI: > 10 µM
[56]
  TGI: > 10 µM
[57]
  TGI: > 10 µM
